# Measurements as given in US20240368135A1 (VERTEX PHARMACEUTICALS INCORPORATED, priority 2021, published 2024).
# Target: human NaV 1.8 (Homo sapiens, UniProt Q9Y5Y9)
# Test: E-VIPR assay detecting and measuring NaV inhibition properties
# Assay type: cell-based
# Conditions: HEK cells expressing truncated human NaV 1.8; no human serum; read-out: IC50 in the E-VIPR Assay
# Method in brief: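 HEK cells expressing truncated, fully active human NaV1.8, with KIR2.1 BacMam co-transduction, were loaded with CC2-DMPE/DiSBAC6(3) voltage-sensing dyes for 20 min at room temperature. Compounds were tested in 11-point 3-fold dilutions (300 nM top final), optionally with 25% human serum, under electrical stimulation with FRET read-out.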
# human NaV 1.8, sequence (Q9Y5Y9 126-399 limits assumed): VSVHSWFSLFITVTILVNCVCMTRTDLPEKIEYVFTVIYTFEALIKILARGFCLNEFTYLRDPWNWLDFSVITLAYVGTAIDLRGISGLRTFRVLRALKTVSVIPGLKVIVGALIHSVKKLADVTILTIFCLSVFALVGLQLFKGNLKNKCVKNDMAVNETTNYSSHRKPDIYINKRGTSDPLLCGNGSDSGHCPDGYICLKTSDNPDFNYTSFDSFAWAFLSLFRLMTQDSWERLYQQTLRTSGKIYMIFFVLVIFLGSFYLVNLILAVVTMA
# human NaV 1.8, sequence (Q9Y5Y9 660-890 limits assumed): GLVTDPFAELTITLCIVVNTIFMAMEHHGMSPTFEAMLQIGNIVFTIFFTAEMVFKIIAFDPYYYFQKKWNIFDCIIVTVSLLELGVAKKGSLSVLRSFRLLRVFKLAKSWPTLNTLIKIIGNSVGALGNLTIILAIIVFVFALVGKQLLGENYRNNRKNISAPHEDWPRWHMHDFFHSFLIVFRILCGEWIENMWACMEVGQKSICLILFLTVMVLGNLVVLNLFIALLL
# human NaV 1.8, sequence (Q9Y5Y9 1148-1722 limits assumed): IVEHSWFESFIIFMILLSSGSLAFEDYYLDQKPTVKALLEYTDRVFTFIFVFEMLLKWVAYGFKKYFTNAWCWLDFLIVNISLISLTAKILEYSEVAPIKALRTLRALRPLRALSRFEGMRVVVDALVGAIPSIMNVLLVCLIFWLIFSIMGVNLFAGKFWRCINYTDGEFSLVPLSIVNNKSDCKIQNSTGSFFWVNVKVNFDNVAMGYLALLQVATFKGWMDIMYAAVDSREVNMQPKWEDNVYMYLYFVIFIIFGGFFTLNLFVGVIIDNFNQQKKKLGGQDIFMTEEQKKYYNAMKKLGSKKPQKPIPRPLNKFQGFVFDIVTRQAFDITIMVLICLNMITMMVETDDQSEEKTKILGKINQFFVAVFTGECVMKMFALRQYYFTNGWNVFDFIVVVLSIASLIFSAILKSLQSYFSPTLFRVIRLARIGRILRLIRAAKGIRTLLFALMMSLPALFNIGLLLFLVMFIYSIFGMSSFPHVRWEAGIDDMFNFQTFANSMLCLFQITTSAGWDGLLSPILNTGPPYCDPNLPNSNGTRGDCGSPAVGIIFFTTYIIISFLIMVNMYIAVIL
row,Compound,IC50
1,"COc1c([C@H]2[C@H](C(=O)Nc3ccc(-c4cnco4)nc3)O[C@@](C)(C(F)(F)F)[C@H]2C)ccc(F)c1F [Compound 394, (2R,3S,4S,5R)-3-(3,4-difluoro-2-methoxyphenyl)-4,5-dimethyl-N-(6-(oxazol-5-yl)pyridin-3-yl)-5-(trifluoromethyl)-tetrahydrofuran-2-carboxamide]",100 to 1000 nM
2,"COc1c([C@H]2[C@H](C(=O)Nc3ccc(-n4ccc(C)n4)nc3)O[C@@](C)(C(F)(F)F)[C@H]2C)ccc(F)c1F [Compound 395, (2R,3S,4S,5R)-3-(3,4-difluoro-2-methoxyphenyl)-4,5-dimethyl-N-(6-(3-methyl-1H-pyrazol-1-yl)pyridin-3-yl)-5-(trifluoromethyl)-tetrahydrofuran-2-carboxamide]",10 to 100 nM
3,"COc1c([C@H]2[C@H](C(=O)Nc3ccc(-c4ccccn4)nc3)O[C@@](C)(C(F)(F)F)[C@H]2C)ccc(F)c1F [Compound 396, (2R,3S,4S,5R)-N-([2,2′-bipyridin]-5-yl)-3-(3,4-difluoro-2-methoxyphenyl)-4,5-dimethyl-5-(trifluoromethyl)-tetrahydrofuran-2-carboxamide]",≥ 1000 nM
4,"COc1c([C@H]2[C@H](C(=O)Nc3ccc(-c4nncn4C)nc3)O[C@@](C)(C(F)(F)F)[C@H]2C)ccc(F)c1F [Compound 397, (2R,3S,4S,5R)-3-(3,4-difluoro-2-methoxyphenyl)-4,5-dimethyl-N-(6-(4-methyl-4H-1,2,4-triazol-3-yl)pyridin-3-yl)-5-(trifluoromethyl)-tetrahydrofuran-2-carboxamide]",100 to 1000 nM
5,"COc1c([C@H]2[C@H](C(=O)Nc3ccc(-c4nnc(C)o4)nc3)O[C@@](C)(C(F)(F)F)[C@H]2C)ccc(F)c1F [Compound 398, (2R,3S,4S,5R)-3-(3,4-difluoro-2-methoxyphenyl)-4,5-dimethyl-N-(6-(5-methyl-1,3,4-oxadiazol-2-yl)pyridin-3-yl)-5-(trifluoromethyl)-tetrahydrofuran-2-carboxamide]",10 to 100 nM
6,"COc1c([C@H]2[C@H](C(=O)Nc3ccc(-c4ncco4)nc3)O[C@@](C)(C(F)(F)F)[C@H]2C)ccc(F)c1F [Compound 399, (2R,3S,4S,5R)-3-(3,4-difluoro-2-methoxyphenyl)-4,5-dimethyl-N-(6-(oxazol-2-yl)pyridin-3-yl)-5-(trifluoromethyl)-tetrahydrofuran-2-carboxamide]",10 to 100 nM
7,"COc1c([C@H]2[C@H](C(=O)Nc3ccc(-c4ccn(C)n4)nc3)O[C@@](C)(C(F)(F)F)[C@H]2C)ccc(F)c1F [Compound 400, (2R,3S,4S,5R)-3-(3,4-difluoro-2-methoxyphenyl)-4,5-dimethyl-N-(6-(1-methyl-1H-pyrazol-3-yl)pyridin-3-yl)-5-(trifluoromethyl)-tetrahydrofuran-2-carboxamide]",100 to 1000 nM
8,"COc1c([C@H]2[C@H](C(=O)Nc3ccc(-n4ccnc4)nc3)O[C@@](C)(C(F)(F)F)[C@H]2C)ccc(F)c1F [Compound 401, (2R,3S,4S,5R)-N-(6-(1H-imidazol-1-yl)pyridin-3-yl)-3-(3,4-difluoro-2-methoxyphenyl)-4,5-dimethyl-5-(trifluoromethyl)-tetrahydrofuran-2-carboxamide]",10 to 100 nM
9,"COc1c([C@H]2[C@H](C(=O)Nc3ccc(-n4cncn4)nc3)O[C@@](C)(C(F)(F)F)[C@H]2C)ccc(F)c1F [Compound 402, (2R,3S,4S,5R)-N-(6-(1H-1,2,4-triazol-1-yl)pyridin-3-yl)-3-(3,4-difluoro-2-methoxyphenyl)-4,5-dimethyl-5-(trifluoromethyl)-tetrahydrofuran-2-carboxamide]",10 to 100 nM
10,"COc1c([C@H]2[C@H](C(=O)Nc3ccc(C#CCO)nc3)O[C@@](C)(C(F)(F)F)[C@H]2C)ccc(F)c1F [Compound 403, (2R,3S,4S,5R)-3-(3,4-difluoro-2-methoxyphenyl)-N-(6-(3-hydroxyprop-1-yn-1-yl)pyridin-3-yl)-4,5-dimethyl-5-(trifluoromethyl)-tetrahydrofuran-2-carboxamide]",10 to 100 nM
11,"COc1c([C@H]2[C@H](C(=O)Nc3ccc(CC4CCOCC4)nc3)O[C@@](C)(C(F)(F)F)[C@H]2C)ccc(F)c1F [Compound 404, (2R,3S,4S,5R)-3-(3,4-difluoro-2-methoxyphenyl)-4,5-dimethyl-N-(6-((tetrahydro-2H-pyran-4-yl)methyl)pyridin-3-yl)-5-(trifluoromethyl)-tetrahydrofuran-2-carboxamide]",100 to 1000 nM
12,"COc1c([C@H]2[C@H](C(=O)Nc3ccnc(CC(C)(C)O)c3)O[C@@](C)(C(F)(F)F)[C@H]2C)ccc(F)c1F [Compound 405, (2R,3S,4S,5R)-3-(3,4-difluoro-2-methoxy-phenyl)-N-[2-(2-hydroxy-2-methyl-propyl)-4-pyridyl]-4,5-dimethyl-5-(trifluoromethyl)tetrahydrofuran-2-carboxamide]",10 to 100 nM
13,"COCC(C)(C)NCc1cc(NC(=O)[C@@H]2O[C@@](C)(C(F)(F)F)[C@@H](C)[C@H]2c2ccc(F)c(F)c2OC)ccn1 [Compound 410, (2R,3S,4S,5R)-3-(3,4-difluoro-2-methoxyphenyl)-N-(2-(((1-methoxy-2-methylpropan-2-yl)amino)methyl)-pyridin-4-yl)-4,5-dimethyl-5-(trifluoromethyl)-tetrahydrofuran-2-carboxamide]",10 to 100 nM
14,"COc1c([C@H]2[C@H](C(=O)Nc3ccnc(N4CCNCC4=O)c3)O[C@@](C)(C(F)(F)F)[C@H]2C)ccc(F)c1F [Compound 411, (2R,3S,4S,5R)-3-(3,4-difluoro-2-methoxyphenyl)-4,5-dimethyl-N-(2-(2-oxopiperazin-1-yl)pyridin-4-yl)-5-(trifluoromethyl)-tetrahydrofuran-2-carboxamide]",< 10 nM
15,"COc1c([C@H]2[C@H](C(=O)Nc3ccn4c(=O)n(CCO)nc4c3)O[C@@](C)(C(F)(F)F)[C@H]2C)ccc(F)c1F [Compound 430, (2R,3S,4S,5R)-3-(3,4-difluoro-2-methoxy-phenyl)-N-[2-(2-hydroxyethyl)-3-oxo-[1,2,4]triazolo[4,3-a]pyridin-7-yl]-4,5-dimethyl-5-(trifluoromethyl)tetrahydrofuran-2-carboxamide]",10 to 100 nM
16,"COc1c([C@H]2[C@H](C(=O)Nc3ncc(O)cn3)O[C@@](C)(C(F)(F)F)[C@H]2C)ccc(F)c1F [Compound 444, (2R,3S,4S,5R)-3-(3,4-difluoro-2-methoxy-phenyl)-N-(5-hydroxypyrimidin-2-yl)-4,5-dimethyl-5-(trifluoromethyl)tetrahydrofuran-2-carboxamide]",100 to 1000 nM
17,"COc1c([C@H]2[C@H](C(=O)Nc3cnc(CCO)n3C)O[C@@](C)(C(F)(F)F)[C@H]2C)ccc(F)c1F [Compound 445, (2R,3S,4S,5R)-3-(3,4-difluoro-2-methoxyphenyl)-N-(2-(2-hydroxyethyl)-1-methyl-1H-imidazol-5-yl)-4,5-dimethyl-5-(trifluoromethyl)tetrahydrofuran-2-carboxamide]",≥ 1000 nM
18,"COc1c([C@H]2[C@H](C(=O)Nc3cnc(C(F)CO)nc3)O[C@@](C)(C(F)(F)F)[C@H]2C)ccc(F)c1F (stereo partly drawn) [Compound 446, (2R,3S,4S,5R)-3-(3,4-difluoro-2-methoxy-phenyl)-N-[2-(1-fluoro-2-hydroxy-ethyl)pyrimidin-5-yl]-4,5-dimethyl-5-(trifluoromethyl)tetrahydrofuran-2-carboxamide]",10 to 100 nM
19,"COc1c([C@H]2[C@H](C(=O)Nc3cnc(C)n3C)O[C@@](C)(C(F)(F)F)[C@H]2C)ccc(F)c1F [Compound 447, (2R,3S,4S,5R)-3-(3,4-difluoro-2-methoxy-phenyl)-N-(2,3-dimethylimidazol-4-yl)-4,5-dimethyl-5-(trifluoromethyl)tetrahydrofuran-2-carboxamide]",10 to 100 nM
20,"COc1c([C@H]2[C@H](C(=O)Nc3ccnc(N4C(=O)CN(C)C[C@H]4C)c3)O[C@@](C)(C(F)(F)F)[C@H]2C)ccc(F)c1F [Compound 465, (2R,3S,4S,5R)-3-(3,4-difluoro-2-methoxyphenyl)-N-(2-((R)-2,4-dimethyl-6-oxopiperazin-1-yl)pyridin-4-yl)-4,5-dimethyl-5-(trifluoromethyl)tetrahydrofuran-2-carboxamide]",< 10 nM
21,"COc1c([C@H]2[C@H](C(=O)Nc3ccnc(N4CCN(C)CCC4=O)c3)O[C@@](C)(C(F)(F)F)[C@H]2C)ccc(F)c1F [Compound 466, (2R,3S,4S,5R)-3-(3,4-difluoro-2-methoxyphenyl)-4,5-dimethyl-N-(2-(4-methyl-7-oxo-1,4-diazepan-1-yl)pyridin-4-yl)-5-(trifluoromethyl)tetrahydrofuran-2-carboxamide]",10 to 100 nM
22,"COc1c([C@H]2[C@H](C(=O)Nc3ccnc(N4CCCN(C)CC4=O)c3)O[C@@](C)(C(F)(F)F)[C@H]2C)ccc(F)c1F [Compound 467, (2R,3S,4S,5R)-3-(3,4-difluoro-2-methoxyphenyl)-4,5-dimethyl-N-(2-(4-methyl-2-oxo-1,4-diazepan-1-yl)pyridin-4-yl)-5-(trifluoromethyl)tetrahydrofuran-2-carboxamide]",10 to 100 nM
23,"COc1c([C@H]2[C@H](C(=O)Nc3ccnc(N4C(=O)CN5CCC4CC5)c3)O[C@@](C)(C(F)(F)F)[C@H]2C)ccc(F)c1F [Compound 468, (2R,3S,4S,5R)-3-(3,4-difluoro-2-methoxyphenyl)-4,5-dimethyl-N-(2-(3-oxo-1,4-diazabicyclo[3.2.2]nonan-4-yl)pyridin-4-yl)-5-(trifluoromethyl)tetrahydrofuran-2-carboxamide]",10 to 100 nM
24,"COc1c([C@H]2[C@H](C(=O)Nc3ccnc(N4C(=O)CN(C)C[C@@H]4C)c3)O[C@@](C)(C(F)(F)F)[C@H]2C)ccc(F)c1F [Compound 469, (2R,3S,4S,5R)-3-(3,4-difluoro-2-methoxyphenyl)-N-(2-((S)-2,4-dimethyl-6-oxopiperazin-1-yl)pyridin-4-yl)-4,5-dimethyl-5-(trifluoromethyl)tetrahydrofuran-2-carboxamide]",< 10 nM
